SMILES strings stand for the structures.

Data set [1] is described as follows: In vitro drug release by Franz cell diffusion. The note with it: pig skin; for release of drug from SPS microneedles: n=3; for time to diffusion after application: from SPS microneedles. In kind it is in vitro ADME. As to the method:
In vitro analysis was performed using Franz cell diffusion. Microneedles containing 0.1% NR and 0.75% CAP were applied onto the skin of a dead pig, and put on donor moieties of Franz cells. A receptor moiety was composed of PBS including 20% ethanol. A sample was analyzed at intervals of 0, 0.5, 1, 2, 3, 4, 5, 6, 12, and 24 hours. The quantification of NR and CAP was performed at 559 nm and 280 nm using UV-Vis spectroscopy (Jasco, V650) and Ultra Performance Liquid Chromatography (UPLC) (Acquity UPLC, Waters), respectively. The amounts of NR and CAP in a microneedle patch were determined by dissolving the patch in PBS including 10% ethyl acetate and 20% ethanol, respectively. Thereafter, solid-phase extraction was performed using ethyl acetate as an eluent. A microneedle patch having no drug was used as the control. 0.1% NR dissolved in 20% ethyl acetate and CAP dissolved in 40% ethanol were used in a topical formulation model. This model was most widely used for a formulation of a lipophilic compound in which an organic solvent was used to dissolve the lipophilic drug. 1 mL of such a topical formulation was dropped on the skin of a pig until the topical formulation was diffused to an area of approximately 2 cm^2.
Also, the size of CAP particles released during diffusion of the Franz cells in the skin of a dead pig (FIG. 4C) was measured. PBS solution samples were taken from the Franz cell receptor after 0, 6, 12, 24 hours of application of the CAP microneedles, and the particle sizes of the samples were measured through SEM image analysis.

The nature of data set [2]: Colloid size by transmission electron microscope (TEM). In kind it is physicochemical. The note with it: colloids of HA and PVP 1:1 with drug. As to the method:
(§1) The morphology of a colloidal structure of a polymer was analyzed using a scanning electron microscope (SEM; equipped with Type JEOL (JSM-7001F) energy-dispersive X-ray (EDX) Oxford ISIS 300 micro-analysis system). For this experiment, platinum coating was performed at 10 mA to protect colloids from high-energy beams. Also, a decrease in the size of the colloids was confirmed using a transmission electron microscope (TEM), and this confirmation was performed on a very thin sample formed on a copper grid as an upper cover provided in the grid. A TEM micrograph was obtained at 120 kV using a JEM 2010 (HC) (JEOL Ltd, USA) microscope. The amorphous form of the drug in the colloidal structure was confirmed using a random XRD analysis on the sample, and continuously scanned at intervals of 3-80° 2θ using an Ultima IV diffractometer (Rigaku Corporation, Japan) with Bragg-Brentano geometry (2θ/θ) having 40 kV/30 mA X-ray and K-beta filter radiations.

Data set [3] in a line: Particle size analysis with particle size analyzer. Type of data set: physicochemical. The note with it: for size of commercially available crystalline drug: crude powder, before homogenization. As to the method: Particle size analysis was performed using a particle size analyzer (Schimdzu, Japan). […] To uniformly mix drugs having a polymer combination and a colloid formulation, the drugs were homogenized at an optimum rotary speed of 21,000 rpm for 5 minutes using a rotor homogenizer (Homogenizer Power Gen 500, Fisher Scientific, USA). Ultrasonication was performed at […] using an ultrasonicator (Sonic vibra cell, USA). In the size analysis, distilled water was used as a solvent, and an average of values obtained reading each of samples three times was calculated. The particle size reading was performed at an interval of 30 minutes due to the tendency of the drug to be crystallized when the drug is exposed to distilled water for a long period of time.

A short description of data set [4]: Colloid morphology and size by scanning electron microscope (SEM). The note with it: colloids of HA and PVP 1:1 with drug. Type of data set: physicochemical. As for the experimental part: as §1
Data set [5] concerns IL-1β. Description: Serum IL-1β by ELISA in CIA mice. Type of data set: in vivo, DBA/1 mice. The note with it: versus RA model.
For data set [6] the following is noted: cited from earlier work.
Where [7] appears, read: homogenized with CMC (10% by weight), 0.1% NR, 0.75% CAP.
Setting [8] is: homogenized with HA (10% by weight), 0.1% NR, 0.75% CAP.
The mark [9] stands for this setting: homogenized with PVA (10% by weight), 0.1% NR, 0.75% CAP.
[10] abbreviates: homogenized with PVP (10% by weight), 0.1% NR, 0.75% CAP.
The mark [11] stands for this setting: homogenized, polymer composition: None.
The mark [12] stands for this setting: in HA and PVP (1:1) smart polymer system.

With `COc1cc(CNC(=O)CCCC/C=C/C(C)C)ccc1O` [CAP, capsaicin], the “release of drug from SPS microneedles” value in data set [1] (0.75% CAP microneedles, after 12 hours of application) is given as 86%. Besides, in data set [1], the “time to diffusion after application” value is “within an hour”. Further, the “colloidal structure particle size (TEM)” value in data set [2] was determined as 154±3 nm. The “size of commercially available crystalline drug” value in data set [3] amounted to 4.845±3 μm. Besides, the particle size in data set [3] (setting [7]) came out at 43.856 ± 3 μm; in data set [3] (setting [8]), 9.736 ± 2 μm; in data set [3] (setting [9]) it was 2.676 ± 7 μm; in data set [3] (setting [10]), 1.432 ± 3 μm; in data set [3] (setting [11]), 0.986±6 μm; in data set [3] (setting [12]), 167.4±4 nm. The “circular colloidal particle size (SEM)” value in data set [4] is reported as “approximately 155±8 nm”. In addition, the “decrease of serum IL-1β level” value in data set [5] was “approximately 50%”.

Usually log P stands for the decadic logarithm of the partition coefficient of the neutral form, usually between octanol and water. As to `CCN(CC)c1ccc2nc3c4ccccc4c(=O)cc-3oc2c1` [NR, Nile Red], the “release of drug from SPS microneedles” value in data set [1] (0.1% NR microneedles, after 8 hours of application) was determined as 74%. Further, the “time to diffusion after application” value in data set [1] was at most 30 min. Further, in data set [2], the “colloidal structure particle size (TEM)” value is on record as 161±32 nm. Moreover, the “size of commercially available crystalline drug” value in data set [3] is recorded as 6.723±5 μm. The particle size is 67.733 ± 8 μm in data set [3] (setting [7]); 11.083 ± 4 μm in data set [3] (setting [8]); 4.243 ± 8 μm in data set [3] (setting [9]); 1.564 ± 3 μm in data set [3] (setting [10]); 1.797±7 μm in data set [3] (setting [11]); 157.4±6 nm in data set [3] (setting [12]). The lipophilicity (log P) in data set [6] is given as 5. Besides, the “circular colloidal particle size (SEM)” value in data set [4] is listed as “approximately 168±12 nm”.

(Values after patent US10537518B2, “Homogenization system of drugs into biodegradable polymer: smart polymer system” (Juvic Inc., priority 2015, dated 2020).)
